Experimental findings from ChEMBL document CHEMBL1137160, “Structure-activity relationships of methylene or terminal side chain modified retinoids on the differentiation and cell death signaling in NB4 promyelocytic leukemia cells” (2004) are described below.

Molecules are shown by their SMILES.

The test system of assay [1] is NB-4. Nature of the assay: Ability to induce maturation and cell death of NB4 cells labelled with V-FITC on day 6. The assay is classed as functional, Homo sapiens. Also noted: concentration or dose not given beside the values.
In assay [2] the target is T1, Retinoic acid receptor beta (Homo sapiens) (UniProt P10826).
T1 sequence (whole entry): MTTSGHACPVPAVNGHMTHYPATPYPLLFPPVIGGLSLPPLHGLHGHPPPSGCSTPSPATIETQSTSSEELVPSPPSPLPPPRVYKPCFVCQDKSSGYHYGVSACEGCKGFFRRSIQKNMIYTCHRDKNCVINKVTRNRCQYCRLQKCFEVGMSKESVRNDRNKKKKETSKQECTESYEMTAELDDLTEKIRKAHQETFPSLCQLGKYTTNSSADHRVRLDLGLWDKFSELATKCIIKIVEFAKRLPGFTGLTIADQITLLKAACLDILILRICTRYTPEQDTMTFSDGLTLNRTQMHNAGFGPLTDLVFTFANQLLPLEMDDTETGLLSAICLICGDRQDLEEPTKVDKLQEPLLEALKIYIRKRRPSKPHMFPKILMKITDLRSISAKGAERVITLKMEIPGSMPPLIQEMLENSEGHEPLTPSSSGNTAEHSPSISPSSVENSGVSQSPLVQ
Nature of the assay: Agonist activity for Retinoic acid receptor beta as photons in presence and absence of ligand. It counts as functional. Also noted: unit not given here.

Assay [3] concerns the target T2, Retinoic acid receptor RXR-beta (Homo sapiens) (UniProt P28702).
T2 sequence (whole entry): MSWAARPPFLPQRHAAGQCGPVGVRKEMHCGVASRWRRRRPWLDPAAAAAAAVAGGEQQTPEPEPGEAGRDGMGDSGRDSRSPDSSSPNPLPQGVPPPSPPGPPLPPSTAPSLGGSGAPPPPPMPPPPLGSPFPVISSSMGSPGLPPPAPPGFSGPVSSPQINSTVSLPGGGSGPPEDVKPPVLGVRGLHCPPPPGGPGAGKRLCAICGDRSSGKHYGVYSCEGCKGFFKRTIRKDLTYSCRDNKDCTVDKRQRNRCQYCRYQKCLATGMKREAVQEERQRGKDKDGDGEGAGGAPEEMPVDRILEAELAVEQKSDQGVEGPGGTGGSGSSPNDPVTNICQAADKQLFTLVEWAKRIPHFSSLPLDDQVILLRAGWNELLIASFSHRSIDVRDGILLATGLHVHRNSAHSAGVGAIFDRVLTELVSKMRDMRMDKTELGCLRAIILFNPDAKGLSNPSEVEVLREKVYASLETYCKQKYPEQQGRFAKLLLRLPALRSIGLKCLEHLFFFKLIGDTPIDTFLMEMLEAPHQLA
Nature of the assay: Agonist activity for Retinoid X receptor beta as photons in presence and absence of ligand. The assay is classed as functional. Also noted: unit not given here.

Assay [4] concerns NB-4. Nature of the assay: Evaluated for mean value of the fluorescence intensity of CD11c-PE expressing NB4 cells at day 6. The assay is classed as functional, Homo sapiens.
The target of assay [5] is T3, Retinoic acid receptor gamma (Homo sapiens) (UniProt P13631).
T3 sequence (whole entry): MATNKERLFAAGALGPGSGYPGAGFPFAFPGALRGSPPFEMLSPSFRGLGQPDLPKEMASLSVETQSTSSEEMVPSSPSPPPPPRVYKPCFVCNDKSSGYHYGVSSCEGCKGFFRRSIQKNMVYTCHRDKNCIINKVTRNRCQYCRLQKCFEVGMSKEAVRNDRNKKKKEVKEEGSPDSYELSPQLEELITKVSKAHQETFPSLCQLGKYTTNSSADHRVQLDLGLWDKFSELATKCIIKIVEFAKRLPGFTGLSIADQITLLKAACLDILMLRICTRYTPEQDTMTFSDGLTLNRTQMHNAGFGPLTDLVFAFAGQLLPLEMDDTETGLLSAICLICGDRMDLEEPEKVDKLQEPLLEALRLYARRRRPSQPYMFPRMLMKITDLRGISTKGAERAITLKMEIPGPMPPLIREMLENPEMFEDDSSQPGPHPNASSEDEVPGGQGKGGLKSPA
The assay is described as follows: Agonist activity for Retinoic acid receptor gamma as photons in presence and absence of ligand. The assay is classed as functional. Set-up: concentration or dose not given beside the values.

Assay [6] deals with NB-4. Nature of the assay: Evaluated for mean value of the fluorescence intensity of CD11c-PE expressing NB4 cells at day 3. The assay is classed as functional, Homo sapiens.
For assay [7], the system named is NB-4. Nature of the assay: Ability to induce maturation and cell death of NB4 cells labelled with V-FITC on day 3. The assay is classed as functional, Homo sapiens. Set-up: concentration or dose not given beside the values.
Assay [8] addresses T4, Retinoic acid receptor alpha (Homo sapiens) (UniProt P10276).
T4 sequence (whole entry): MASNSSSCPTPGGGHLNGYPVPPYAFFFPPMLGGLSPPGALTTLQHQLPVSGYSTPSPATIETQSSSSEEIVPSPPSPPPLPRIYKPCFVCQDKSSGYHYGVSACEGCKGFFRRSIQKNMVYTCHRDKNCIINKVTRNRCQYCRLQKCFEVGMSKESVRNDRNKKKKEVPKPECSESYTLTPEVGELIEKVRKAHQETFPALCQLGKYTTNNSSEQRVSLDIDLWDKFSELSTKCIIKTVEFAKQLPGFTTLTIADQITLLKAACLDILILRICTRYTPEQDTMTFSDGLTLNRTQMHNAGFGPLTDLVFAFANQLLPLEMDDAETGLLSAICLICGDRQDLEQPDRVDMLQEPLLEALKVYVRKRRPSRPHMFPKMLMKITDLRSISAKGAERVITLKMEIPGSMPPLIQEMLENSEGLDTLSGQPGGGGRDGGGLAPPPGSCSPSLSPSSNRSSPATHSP
The assay is described as follows: Agonist activity for Retinoic acid receptor alpha as photons in presence and absence of ligand. It counts as functional. Set-up: unit not given here.

On to `C=C(/C=C/c1ccccc1)C/C=C/C(C)=C\C(=O)O`, for which the Activity was found to be 8% in the assay on NB-4 [1]; 4 in assay [2]; 13.5 in assay [3]; 12 with NB-4 [4]; 4.6 in assay [5]; 15 in the assay on NB-4 [6]. The results for the Activity (in the assay on NB-4 [7]; in assay [8]) were 9% and 4.9, respectively.
Regarding `CC1=C(/C=C/C(C)=C/C=C(\C#N)C(C)=C(C(=O)O)C(=O)O)C(C)(C)CCC1`, the Activity is 12% in the assay on NB-4 [1]; 17.9 in assay [2]; 3 in assay [3]; 64 with NB-4 [4]; 11.7 in assay [5]; 77 with NB-4 [6]. For the same compound, the values for the Activity (in the assay on NB-4 [7]; in assay [8]) were 11% and 22.2, respectively.
For `C=C(/C=C/C1=C(C)CCCC1(C)C)C/C=C/C(C)=C\C(=O)O`, the Activity in the assay with NB-4 [1] worked out at 14%; in assay [2], 14.5; in assay [3], 2.1; with NB-4 [4] it was 43; in assay [5] it was 10.9; with NB-4 [6], 38. The results for the Activity (with NB-4 [7]; in assay [8]) were 11% and 11.8, respectively.
Take `C=C(/C=C/C1=C(C)CCCC1(C)C)C/C=C/C(C)=C/C(=O)O`: the Activity was 56% in the assay on NB-4 [1]; 7.2 in assay [2]; 5.8 in assay [3]; 163 with NB-4 [4]; 3.3 in assay [5]; 117 in the assay with NB-4 [6]. The Activity with NB-4 [7] amounted to 18%; in assay [8] it was 7.
`CC1=C(/C=C/C(C)=C/C=C/C(C)=C/C(=O)O)C(C)(C)CCC1` [TRETINOIN]: the Activity is on record as 50% in the assay with NB-4 [1], 197 in the assay with NB-4 [4], 110 in the assay on NB-4 [6] and 14% in the assay on NB-4 [7].
The matching figures for `C/C(=C\c1ccc(C(=O)O)cc1)c1ccc2c(c1)C(C)(C)CCC2(C)C`: 35%, 170, 106 and 14%.
In assay [3], `CC1=C(/C=C/C(C)=C\C=C\C(C)=C\C(=O)O)C(C)(C)CCC1` gave an Activity of 14.5.
`C=C(/C=C/C1=C(C)CCCC1(C)C)C/C=C/C=C\C(=O)O`: the Activity is 12% in the assay on NB-4 [1]; 13.1 in assay [2]; 2 in assay [3]; 35 in the assay with NB-4 [4]; 7.9 in assay [5]; 33 in the assay with NB-4 [6]. In addition, the Activity stood at 10% in the assay on NB-4 [7] and 7.1 in assay [8].
Regarding `COC(=O)\C=C(C)/C(C#N)=C/C=C(C)/C=C/C1=C(C)CCCC1(C)C`, the Activity in the assay with NB-4 [1] worked out at 8%; in assay [2], 6.7; in assay [3] it was 1.6; in the assay on NB-4 [4], 10; in assay [5], 3; in the assay with NB-4 [6], 10. In addition, the Activity in the assay on NB-4 [7] turned out to be 13%; in assay [8], 1.3.
For the compound `CC1(C)CCC(C)(C)c2cc(C3(c4ccc(C(=O)O)cc4)OCCO3)ccc21`, the Activity in the assay with NB-4 [1] is 11%; with NB-4 [4] it was 23; in the assay with NB-4 [6], 22; in the assay on NB-4 [7], 11%.
For `CC1=C(/C=C/C(C)=C/C=C(C#N)/C(C)=C\C(=O)O)C(C)(C)CCC1`, the Activity is 20% in the assay with NB-4 [1]; 14.6 in assay [2]; 2.1 in assay [3]; 126 in the assay with NB-4 [4]; 8.9 in assay [5]; 88 with NB-4 [6]. In addition, the values for the Activity (with NB-4 [7]; in assay [8]) were 9% and 23.5, respectively.
